Measured values: paper PMC12621200, “Giving an Enzyme Scissors: Serotonin Derivatives as Potent Organocatalytic Switches for DNA Repair Enzyme OGG1” (Journal of Medicinal Chemistry, 2025)

Biological target: T1, OGG1 (Homo sapiens, UniProt O15527)
T1 construct: made in house
Assay: Biochemical fluorescence (fluorophore-quencher) assay of OGG1 incision rate, 8-oxoA substrate
Settings: for AC50 / AC50 (CI95%): concentration giving 50% of the incision rate of OGG1 with APE1 (2 nM) control; for AC50: read-out: AC50 (CI95%); call rule not given here

T1 sequence (O15527 whole entry): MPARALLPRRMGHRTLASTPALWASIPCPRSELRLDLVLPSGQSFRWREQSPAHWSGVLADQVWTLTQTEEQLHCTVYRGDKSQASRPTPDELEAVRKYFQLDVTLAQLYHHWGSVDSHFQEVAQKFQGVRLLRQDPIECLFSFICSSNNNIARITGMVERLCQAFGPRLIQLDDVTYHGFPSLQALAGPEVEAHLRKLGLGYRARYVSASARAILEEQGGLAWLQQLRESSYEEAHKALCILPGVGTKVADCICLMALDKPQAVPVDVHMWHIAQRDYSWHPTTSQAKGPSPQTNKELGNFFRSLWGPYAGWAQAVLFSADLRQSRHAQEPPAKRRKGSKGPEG

SMILES	AC50 [µM]	AC50 (CI95%)	OGG1 activation, SAR result in words
NCCc1c(-c2cccnc2)[nH]c2ccccc12 [Compound 1, 2-(2-(Pyridin-3-yl)-1H-indol-3-yl)-ethan-1-amine]	4.1		
Cc1ccc2[nH]c(-c3cccnc3)c(CCN)c2c1 [Compound 2, 2-(5-Methyl-2-(pyridin-3-yl)-1H-indol-3-yl)-ethan-1-amine]		inactive	
COc1ccc2[nH]c(-c3cccnc3)c(CCN)c2c1 [Compound 3, 2-(5-Methoxy-2-(pyridin-3-yl)-1H-indol-3-yl)-ethan-1-amine]		inactive	
NCCc1c(-c2cccnc2)[nH]c2ccc(Cl)cc12 [Compound 4, 2-(5-Chloro-2-(pyridin-3-yl)-1H-indol-3-yl)-ethan-1-amine]		inactive	
Cc1cccc2c(CCN)c(-c3cccnc3)[nH]c12 [Compound 5, 2-(7-Methyl-2-(pyridin-3-yl)-1H-indol-3-yl)-ethan-1-amine]		inactive	
NC(Cc1c(-c2cccnc2)[nH]c2ccccc12)C(=O)O (stereo not drawn) [Compound 6, 2-Amino-3-(2-(pyridin-3-yl)-1H-indol-3-yl)-propanoic Acid]		inactive	abolished activity
NCCc1c(-c2ccccc2)[nH]c2ccccc12 [Compound 7, 2-Phenyltryptamine]		inactive	complete loss of activity
NCCc1c(-c2ccccc2)[nH]c2ccc(O)cc12 [Compound 8, 5-Hydroxy-2-phenyltryptamine]	4		showed potency
NCCc1c(-c2ccccc2)[nH]c2cc(F)ccc12 [Compound 9, 6-Fluoro-2-phenyltryptamine]		inactive	
c1cncc(-c2cc3ccccc3[nH]2)c1 [Compound 10, 2-(Pyridin-3-yl)-1H-indole]	1.7		
Cc1ccc2[nH]c(-c3cccnc3)cc2c1 [Compound 11, 5-Methyl-2-(pyridin-3-yl)-1H-indole]	5.7		
Fc1ccc2[nH]c(-c3cccnc3)cc2c1 [Compound 12, 5-Fluoro-2-(pyridin-3-yl)-1H-indole]	1.9		
Brc1ccc2[nH]c(-c3cccnc3)cc2c1 [Compound 13, 5-Bromo-2-(pyridin-3-yl)-1H-indole]	1		
COc1ccc2[nH]c(-c3cccnc3)cc2c1 [Compound 14, 5-Methoxy-2-(pyridin-3-yl)-1H-indole]	13		
Oc1ccc2[nH]c(-c3cccnc3)cc2c1 [Compound 15, 2-(Pyridin-3-yl)-1H-indol-5-ol]	6		
Fc1cncc(-c2cc3ccccc3[nH]2)c1 [Compound 16, 2-(5-Fluoropyridin-3-yl)-1H-indole]	1.4		
Fc1ccc(-c2cc3ccccc3[nH]2)cn1 [Compound 17, 2-(6-Fluoropyridin-3-yl)-1H-indole]		inactive	
Nc1cncc(-c2cc3ccccc3[nH]2)c1 [Compound 18]	> 100		
Nc1ccc(-c2cc3ccccc3[nH]2)cn1 [Compound 19, 5-(1H-Indol-2-yl)-pyridin-2-amine]	9.3		
Oc1cncc(-c2cc3ccccc3[nH]2)c1 [Compound 20, 5-(1H-Indol-2-yl)-pyridin-3-ol]	2.8		
Oc1ccc(-c2cc3ccccc3[nH]2)cn1 [Compound 21, 5-(1H-Indol-2-yl)-pyridin-2-ol]		inactive	

SMILES	AC50 [µM]	AC50 (CI95%)	OGG1 activation, SAR result in words
Clc1ccc(-c2cc3ccccc3[nH]2)cn1 [Compound 22, 2-(6-Chloropyridin-3-yl)-1H-indole]		inactive	
Cc1ccc(-c2cc3ccccc3[nH]2)cn1 [Compound 23, 2-(6-Methylpyridin-3-yl)-1H-indole]	14		
c1ccc2[nH]c(-c3ccncc3)cc2c1 [Compound 24, (2-Pyridin-4-yl)-1H-indole]		inactive	not tolerated
c1ccc2[nH]c(-c3cncnc3)cc2c1 [Compound 25, 2-(Pyrimidin-5-yl)-1H-indole]		inactive	not tolerated
c1ccc2[nH]c(-c3cnc4[nH]ccc4c3)cc2c1 [Compound 26, 5-(1H-Indol-2-yl)-1H-pyrrolo[2,3-b]-pyridine]	1.4		
c1ccc2ncc(-c3cc4ccccc4[nH]3)cc2c1 [Compound 27, 3-(1H-Indol-2-yl)-quinoline]		inactive	not tolerated
c1cncc(-c2cc3ccccc3o2)c1 [Compound 28, 3-(Benzofuran-2-yl)-pyridine]	4.1		
NCCc1c(-c2cccnc2)[nH]c2cc(O)ccc12 [Compound 31, 3-(2-Aminoethyl)-2-(pyridin-3-yl)-1H-indol-6-ol]		inactive	
NCCc1c(-c2cccnc2)[nH]c2c(O)cccc12 [Compound 32, 3-(2-Aminoethyl)-2-(pyridin-3-yl)-1H-indol-7-ol]		inactive	
NCCc1c(-c2cccnc2)[nH]c2cccc(O)c12 [Compound 33, 3-(2-Aminoethyl)-2-(pyridin-3-yl)-1H-indol-4-ol]		inactive	
NCCc1c(-c2cccnc2)[nH]c2ccc(F)cc12 [Compound 34, 2-(5-Fluoro-2-(pyridin-3-yl)-1H-indol-3-yl)-ethan-1-amine]	6.4		tolerated
NCCc1c(-c2cccnc2)[nH]c2cc(F)ccc12 [Compound 35, 2-(6-Fluoro-2-(pyridin-3-yl)-1H-indol-3-yl)-ethan-1-amine]	5.3		tolerated
NCCc1c(-c2cccnc2)[nH]c2ccc(N)cc12 [Compound 36, 3-(2-Aminoethyl)-2-(pyridin-3-yl)-1H-indol-5-amine]		inactive	not tolerated
NCCc1c(-c2cccnc2)[nH]c2ccc(C(=O)O)cc12 [Compound 37, 3-(2-Aminoethyl)-2-(pyridin-3-yl)-1H-indole-5-carboxylic Acid]		inactive	not tolerated
NCc1c(-c2cccnc2)[nH]c2ccc(O)cc12 [Compound 39, 3-(Aminomethyl)-2-(pyridin-3-yl)-1H-indol-5-ol]		inactive	not tolerated
NCCCc1c(-c2cccnc2)[nH]c2ccc(O)cc12 [Compound 40, 3-(3-Aminopropyl)-2-(pyridin-3-yl)-1H-indol-5-ol]		inactive	not tolerated
NCCc1c(-c2ccccn2)[nH]c2ccc(O)cc12 [Compound 42, 3-(2-Aminoethyl)-2-(pyridin-2-yl)-1H-indol-5-ol]		inactive	lost activity
NCCc1c(-c2ccncc2)[nH]c2ccc(O)cc12 [Compound 43, 3-(2-Aminoethyl)-2-(pyridin-4-yl)-1H-indol-5-ol]		inactive	lost activity
NCCc1c(-c2cncnc2)[nH]c2ccc(O)cc12 [Compound 44, 3-(2-Aminoethyl)-2-(pyrimidin-5-yl)-1H-indol-5-ol]	0.25		slight increase in activity
NCCc1c(-c2cncs2)[nH]c2ccc(O)cc12 [Compound 45, 3-(2-Aminoethyl)-2-(thiazol-5-yl)-1H-indol-5-ol]	0.4		slight increase in activity
